Patent publication US20220207902A1, “SYSTEM AND METHOD FOR AUTOMATICALLY DISCOVERING, CHARACTERIZING, CLASSIFYING AND SEMI-AUTOMATICALLY LABELING ANIMAL BEHAVIOR AND QUANTITATIVE PHENOTYPING OF BEHAVIORS IN ANIMALS” (President and Fellows of Harvard College, priority 2012, published 2022)
“Also recorded” adds a separate entry of the source.

Legend:
mice [1] = assay: conventional two-compartment behavioral choice assay (odor-soaked filter paper); type: in vivo; settings: odors soaked into filter papers placed in the small compartment of a cage divided by a parafilm curtain; FIGS. 4A and 4B
Source text: (§1) FIGS. 4A-4E depict assessment of odor-driven innate behaviors in two and three dimensions. FIGS. 4A and B depict a conventional two-compartment behavioral choice assay. FIG. 4C, left, depicts a new behavioral arena. FIG. 4C, right, depicts a chart generated through use of custom-written Matlab code to track animal trajectories.
(§2) FIGS. 4A-4E depict the assessment of odor-driven innate behaviors in two and three dimensions. […] Odors are soaked into filter papers, which are placed in the small compartment of a cage divided by a parafilm curtain. This assay suffers from incomplete control of gas-phase odorant concentration, poorly defined spatial odor gradients and experimental variability due to the physical interaction of the animal with the odor source. The present inventors have therefore developed a new behavioral arena (FIG. 4C, left), in which odors are delivered to each of 4 corners in gas phase via high-performance computer-controlled Teflon valves.

mice [2] = assay: odor quadrant arena, odors delivered in gas phase to one of four corners, animal tracked by 2D tracking or depth camera; type: in vivo
Source text: as §1, §2
Odors are delivered to one of four quadrants via computer-controlled olfactometers, which can deliver precisely timed pulses or square waves of odorants at defined concentrations. […]

Compound | innate behavioral response to odor (attraction or avoidance) (mice [1]) | posture (aspect ratio versus height) by depth camera (mice [2]; depth camera, compared with control conditions (stretched and low to the ground), FIG. 4E) | qualitative and quantitative avoidance behavior (mice [2]; odor delivered in gas phase in the upper right corner, FIG. 4D)
C=CCc1ccc(O)c(OC)c1 [eugenol] | robust innate behavioral attraction | – | –
CC1=NC(C)SC1C (stereo not shown) [TMT] | avoidance | become compressed (from the perspective of the overhead camera) and elevate their noses | avoidance behaviors that are extraordinarily robust and well controlled; also recorded: avoidance behavior
Cc1cnc(C)cn1 [2,5-DMP] | avoidance | – | –
CCCC(=O)O [butyric acid] | avoidance | – | –
CCCCCC(C)=O [2-heptanone] | avoidance | – | –
